Source: ChEMBL document CHEMBL4028823, “Pharmacological property optimization for allosteric ligands: A medicinal chemistry perspective” (Bioorg Med Chem Lett, 2017)

Assays:
[1] = target: Metabotropic glutamate receptor 5 (Homo sapiens) (UniProt P41594); experiment: Negative allosteric modulation of mGlu5 receptor (unknown origin) expressed in HEK293A cells assessed as inhibition of glutamate induced-calcium mobilization by Fluo-4 AM dye based fluorescence assay; format: functional, cell-based
[2] = target: T1, Muscarinic acetylcholine receptor M1 (Homo sapiens) (UniProt P11229); experiment: Displacement of [3H]NMS from recombinant human mAChR1 expressed in Flp-In-CHO cells after 1 hr by microbeta scintillation counting analysis; format: cell-based
T1 sequence (whole entry): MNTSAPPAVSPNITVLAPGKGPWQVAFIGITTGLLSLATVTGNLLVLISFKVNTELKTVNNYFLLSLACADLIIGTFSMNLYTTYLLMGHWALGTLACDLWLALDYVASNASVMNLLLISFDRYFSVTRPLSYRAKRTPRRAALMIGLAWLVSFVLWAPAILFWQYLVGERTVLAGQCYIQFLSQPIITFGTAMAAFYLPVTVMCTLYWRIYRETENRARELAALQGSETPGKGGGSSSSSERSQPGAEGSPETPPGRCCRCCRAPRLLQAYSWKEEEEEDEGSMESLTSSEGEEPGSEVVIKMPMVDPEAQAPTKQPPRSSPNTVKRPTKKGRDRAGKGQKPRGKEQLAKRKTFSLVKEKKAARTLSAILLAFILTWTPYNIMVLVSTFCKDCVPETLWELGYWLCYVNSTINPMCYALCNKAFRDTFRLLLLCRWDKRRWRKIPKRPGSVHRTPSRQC

[3] = target: T1, Muscarinic acetylcholine receptor M1 (Homo sapiens); experiment: Displacement of [3H]NMS from recombinant human mAChR1 expressed in CHO cells; format: cell-based
[4] = target: T2, Glycine receptor subunit alpha-1 (Homo sapiens, UniProt P23415); experiment: Positive allosteric modulatory activity at recombinant human glycine alpha1 receptor expressed in HEK293 cells assessed as potentiation of glycine-induced response at -50 mV holding potential in presence of fructose by whole cell patch clamp method; format: cell-based
T2 sequence (P23415 whole entry): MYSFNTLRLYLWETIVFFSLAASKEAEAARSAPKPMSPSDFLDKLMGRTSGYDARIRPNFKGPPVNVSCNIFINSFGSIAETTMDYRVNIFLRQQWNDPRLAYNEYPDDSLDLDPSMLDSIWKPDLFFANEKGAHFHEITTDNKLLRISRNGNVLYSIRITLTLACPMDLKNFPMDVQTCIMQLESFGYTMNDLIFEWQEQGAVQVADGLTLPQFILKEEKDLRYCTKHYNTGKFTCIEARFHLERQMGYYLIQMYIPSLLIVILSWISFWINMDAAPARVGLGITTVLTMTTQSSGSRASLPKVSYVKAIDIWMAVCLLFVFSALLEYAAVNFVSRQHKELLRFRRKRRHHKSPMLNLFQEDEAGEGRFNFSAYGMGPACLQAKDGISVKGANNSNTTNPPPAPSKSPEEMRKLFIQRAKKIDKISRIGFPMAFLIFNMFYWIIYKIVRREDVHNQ

[5] = target: D(2) dopamine receptor (Homo sapiens) (UniProt P14416)
D(2) dopamine receptor (Homo sapiens), sequence (P14416 whole entry): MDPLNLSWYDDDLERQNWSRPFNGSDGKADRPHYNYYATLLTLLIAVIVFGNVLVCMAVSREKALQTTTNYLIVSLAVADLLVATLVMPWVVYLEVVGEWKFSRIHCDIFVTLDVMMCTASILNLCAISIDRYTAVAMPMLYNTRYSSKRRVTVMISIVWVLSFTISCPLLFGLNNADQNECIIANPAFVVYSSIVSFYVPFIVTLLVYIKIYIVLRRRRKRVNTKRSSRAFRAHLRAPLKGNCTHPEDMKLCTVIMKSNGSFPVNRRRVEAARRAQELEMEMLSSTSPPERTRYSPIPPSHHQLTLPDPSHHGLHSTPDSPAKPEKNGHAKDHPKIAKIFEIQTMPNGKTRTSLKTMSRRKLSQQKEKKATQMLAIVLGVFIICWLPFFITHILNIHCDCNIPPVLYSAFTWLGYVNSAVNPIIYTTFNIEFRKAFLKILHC
Description: Displacement of [3H]spiperone from D2 long receptor (unknown origin) expressed in Flp-In-CHO cell membranes assessed as transduction coefficient by measuring dissociation half life after 5 mins by liquid scintillation counter method

[6] = target: D(2) dopamine receptor (Homo sapiens) (UniProt P14416); remark: listed apart in the source
Description: Agonist activity at Rluc8-tagged D2 long receptor (unknown origin) expressed in Flp-In-CHO cells co-expressing YFP-tagged beta-arrestin2 assessed as change in transduction coefficient by measuring beta-arrestin2 recruitment measured after 5 mins by BRET assay

[7] = target: D(2) dopamine receptor (Homo sapiens) (UniProt P14416); remark: listed apart in the source
Description: Agonist activity at D2 long receptor (unknown origin) expressed in Flp-In-CHO cells co-expressing Rluc8-tagged GalphaoB assessed as change in transduction coefficient by measuring GalphaoB activation in presence of coelenterazine by BRET assay

[8] = target: D(2) dopamine receptor (Homo sapiens) (UniProt P14416); remark: listed apart in the source
Description: Agonist activity at D2 long receptor (unknown origin) expressed in Flp-In-CHO cells co-expressing Rluc8-tagged Galphai1 assessed as change in transduction coefficient by measuring Galphai1 activation after 5 mins in presence of coelenterazine by BRET assay

[9] = target: D(2) dopamine receptor (Homo sapiens) (UniProt P14416); remark: listed apart in the source
Description: Agonist activity at D2 long receptor (unknown origin) expressed in Flp-In-CHO cells assessed as change in transduction coefficient by measuring induction of ERK1/2 phosphorylation after 5 mins by Alphascreen assay

[10] = target: D(2) dopamine receptor (Homo sapiens) (UniProt P14416); remark: listed apart in the source
Description: Agonist activity at D2 long receptor (unknown origin) expressed in Flp-In-CHO cells assessed as change in transduction coefficient by measuring inhibition of forskolin-induced cAMP production measured after 5 mins in presence of coelenterazine by BRET assay

[11] = target: D(2) dopamine receptor (Homo sapiens) (UniProt P14416); remark: listed apart in the source
Description: Agonist activity at D2 long receptor (unknown origin) expressed in Flp-In-CHO cells assessed as change in transduction coefficient by measuring cellular impedance measured immediately at 15 secs interval for 90 mins by xCELLigence assay

[12] = target: T3, C-X-C chemokine receptor type 3 (Homo sapiens) (UniProt P49682); experiment: Displacement of [3H]RAMX3 from CXCR3 (unknown origin) expressed in HEK cells after 1 hrs by microbeta scintillation counter; format: cell-based
T3 sequence (whole entry): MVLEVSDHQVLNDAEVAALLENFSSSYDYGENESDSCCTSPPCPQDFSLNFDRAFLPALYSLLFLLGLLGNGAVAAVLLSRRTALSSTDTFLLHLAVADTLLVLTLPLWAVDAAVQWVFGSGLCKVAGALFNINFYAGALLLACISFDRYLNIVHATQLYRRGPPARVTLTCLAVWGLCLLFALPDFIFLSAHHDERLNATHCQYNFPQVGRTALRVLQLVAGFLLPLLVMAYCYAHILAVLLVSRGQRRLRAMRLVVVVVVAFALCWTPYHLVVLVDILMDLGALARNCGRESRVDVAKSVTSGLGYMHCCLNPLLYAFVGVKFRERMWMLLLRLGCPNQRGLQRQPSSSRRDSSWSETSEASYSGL

[13] = target: T4, Tyrosine-protein kinase BTK (Homo sapiens, UniProt Q06187); experiment: Ratio of Kinact to ki for recombinant full length BTK (unknown origin)
T4 sequence (Q06187 whole entry): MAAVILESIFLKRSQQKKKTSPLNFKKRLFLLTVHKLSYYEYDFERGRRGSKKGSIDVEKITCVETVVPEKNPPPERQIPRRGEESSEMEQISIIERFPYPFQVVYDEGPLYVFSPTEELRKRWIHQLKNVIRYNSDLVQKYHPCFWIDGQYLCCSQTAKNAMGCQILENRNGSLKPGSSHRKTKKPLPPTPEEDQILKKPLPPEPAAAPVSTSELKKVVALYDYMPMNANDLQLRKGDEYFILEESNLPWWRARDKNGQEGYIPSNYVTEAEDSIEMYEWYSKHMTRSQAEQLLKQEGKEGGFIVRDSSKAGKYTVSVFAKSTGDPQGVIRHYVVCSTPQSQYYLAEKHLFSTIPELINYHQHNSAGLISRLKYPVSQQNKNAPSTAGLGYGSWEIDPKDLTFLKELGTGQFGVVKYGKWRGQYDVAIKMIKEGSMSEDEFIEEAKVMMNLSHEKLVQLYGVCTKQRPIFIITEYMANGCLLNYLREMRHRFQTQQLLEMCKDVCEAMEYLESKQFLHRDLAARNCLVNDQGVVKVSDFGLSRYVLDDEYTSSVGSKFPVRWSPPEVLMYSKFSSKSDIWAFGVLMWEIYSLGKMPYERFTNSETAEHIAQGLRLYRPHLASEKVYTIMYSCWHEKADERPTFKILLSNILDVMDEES

[14] = target: T4, Tyrosine-protein kinase BTK; experiment: Binding affinity to recombinant full length BTK (unknown origin) assessed as residence time by fluorescent tracer based TR-FRET assay
[15] = target: T5, Muscarinic acetylcholine receptor M2 (Homo sapiens, UniProt P08172); experiment: Displacement of [3H]NMS from wild-type human mAChR2 expressed in Flp-In-CHO cell membranes in presence of mAChR2 agonist acetylcholine after 90 mins by scintillation counting analysis
T5 sequence (P08172 whole entry): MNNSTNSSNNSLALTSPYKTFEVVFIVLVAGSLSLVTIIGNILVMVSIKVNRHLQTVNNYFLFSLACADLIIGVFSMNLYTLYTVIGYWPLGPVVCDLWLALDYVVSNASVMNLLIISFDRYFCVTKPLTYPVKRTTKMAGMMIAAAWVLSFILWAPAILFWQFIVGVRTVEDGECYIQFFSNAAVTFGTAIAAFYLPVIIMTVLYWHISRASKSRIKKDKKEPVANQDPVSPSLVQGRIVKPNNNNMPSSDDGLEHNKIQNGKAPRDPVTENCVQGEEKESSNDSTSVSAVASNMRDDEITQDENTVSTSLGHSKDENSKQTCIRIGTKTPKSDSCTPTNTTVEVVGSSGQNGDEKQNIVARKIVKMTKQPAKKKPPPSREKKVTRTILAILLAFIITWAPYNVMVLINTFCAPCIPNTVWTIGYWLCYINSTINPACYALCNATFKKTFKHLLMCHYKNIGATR

[16] = target: T5, Muscarinic acetylcholine receptor M2; experiment: Displacement of [3H]NMS from wild-type human mAChR2 expressed in Flp-in-CHO cell membranes in presence of mAChR2 agonist xanomeline after 90 mins by scintillation counting analysis

Metabotropic glutamate receptor 5 (Homo sapiens), sequence (P41594 21-1212 limits assumed): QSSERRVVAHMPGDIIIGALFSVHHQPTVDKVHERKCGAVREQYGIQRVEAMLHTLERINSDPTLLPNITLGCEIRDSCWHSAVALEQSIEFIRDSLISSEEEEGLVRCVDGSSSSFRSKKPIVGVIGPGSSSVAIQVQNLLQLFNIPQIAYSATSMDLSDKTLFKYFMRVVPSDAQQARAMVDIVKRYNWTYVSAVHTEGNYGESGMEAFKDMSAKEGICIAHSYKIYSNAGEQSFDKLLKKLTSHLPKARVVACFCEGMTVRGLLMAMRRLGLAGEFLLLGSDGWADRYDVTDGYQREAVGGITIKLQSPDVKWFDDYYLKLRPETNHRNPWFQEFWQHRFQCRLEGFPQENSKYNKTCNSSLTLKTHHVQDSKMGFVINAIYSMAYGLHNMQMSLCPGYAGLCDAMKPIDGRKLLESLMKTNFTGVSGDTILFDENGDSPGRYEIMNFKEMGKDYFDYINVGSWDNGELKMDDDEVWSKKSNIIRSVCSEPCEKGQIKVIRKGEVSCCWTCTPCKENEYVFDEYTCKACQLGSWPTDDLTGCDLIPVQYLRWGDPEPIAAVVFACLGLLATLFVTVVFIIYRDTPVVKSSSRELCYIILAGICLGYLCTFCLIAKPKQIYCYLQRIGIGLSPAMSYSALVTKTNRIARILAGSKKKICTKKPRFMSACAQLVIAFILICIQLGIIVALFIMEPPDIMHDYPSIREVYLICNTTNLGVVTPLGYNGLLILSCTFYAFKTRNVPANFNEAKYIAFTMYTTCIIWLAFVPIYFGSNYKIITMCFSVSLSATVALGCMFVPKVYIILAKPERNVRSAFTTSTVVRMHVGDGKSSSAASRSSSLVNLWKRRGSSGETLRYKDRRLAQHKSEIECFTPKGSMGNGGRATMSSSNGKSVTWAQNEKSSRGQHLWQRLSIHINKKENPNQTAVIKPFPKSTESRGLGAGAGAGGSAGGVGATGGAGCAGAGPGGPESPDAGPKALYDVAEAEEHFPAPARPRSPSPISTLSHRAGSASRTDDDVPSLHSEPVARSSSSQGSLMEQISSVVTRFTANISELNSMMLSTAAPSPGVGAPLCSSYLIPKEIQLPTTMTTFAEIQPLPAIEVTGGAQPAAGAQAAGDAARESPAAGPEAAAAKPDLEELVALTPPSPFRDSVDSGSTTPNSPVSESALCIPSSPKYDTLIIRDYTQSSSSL

C#CCOc1ccc(C(=O)c2ccc(OCCOc3cccc(C#Cc4csc(C)n4)c3)cc2)cc1
pKb [1]: 6.1

Cc1cc2ncn([C@H]3CCCC[C@@H]3O)c(=O)c2cc1Cc1ccc(-c2cnn(C)c2)nc1
pKb [2]: 5.2

O=C(O)c1cn(Cc2ccc(N=C=S)cc2)c2ccccc2c1=O
pKb [3]: 5.2

O=C(CO)[C@@H](O)[C@H](O)[C@H](O)CO [FRUCTOSE]
EC50 [4]: 12.6 µM

O=c1[nH]c2cccc(N3CCN(Cc4cccc(-c5ccccc5)c4)CC3)c2o1
T1/2 [5]: 86 min
deltalog(Tau/KA) [6]: -0.6
deltalog(Tau/KA) [7]: 0.3
deltalog(Tau/KA) [8]: 1.4
deltalog(Tau/KA) [9]: -1.2
deltalog(Tau/KA) [10]: -0.2
deltalog(Tau/KA) [11]: -0.3

Cc1c(Cc2ccc(-c3cnn(C)c3)nc2)cc2c(=O)n([C@H]3CCCC[C@@H]3O)cnc2c1C
pKb [2]: 5.1

CCOc1cc(CC(=O)N(Cc2ccc(OC)c(B(O)O)c2)C(C)c2nc3ncccc3c(=O)n2-c2ccc(C)cc2)ccc1F (stereo not given)
pKb [12]: 6.1

CN(C)C(=O)N[C@H]1CC[C@H](CCN2CCN(c3cccc(Cl)c3Cl)CC2)CC1
T1/2 [5]: 1.4 min
deltalog(Tau/KA) [7]: 0.7
deltalog(Tau/KA) [9]: -1.1
deltalog(Tau/KA) [10]: 0.2
deltalog(Tau/KA) [11]: 0.3

Cn1cc(-c2ccc(Cc3ccc4ncn([C@H]5CCCC[C@@H]5O)c(=O)c4c3)cn2)cn1
pKb [2]: 4.3

COc1ccc(Cn2cc(C(=O)O)c(=O)c3ccccc32)cc1
pKb [2]: 4.8

CC(C)(/C=C(\C#N)C(=O)N1CCC[C@@H]1Cn1nc(-c2ccc(Oc3ccccc3)cc2F)c2c(N)ncnc21)NC1COC1
Ratio [13]: 0.4
TIME [14]: 167 h

Cn1cc(-c2ccc(Cc3cc4c(=O)n([C@H]5CCCC[C@@H]5O)cnc4c4ccccc34)cn2)cn1
pKb [2]: 5.8

COc1nc2sc(C(=O)NC3CC3)c(N)c2c(C)c1Cl
Ki [15]: 3.16 µM
Ki [16]: 0.158 µM
